Laboratory results as given in patent publication US20070202548A1, “SCREENING ASSAY TO IDENTIFY INHIBITORS OF THE MURD ENZYME USING AN ACTIVATOR-I[…] ENZYME” (priority 2002, published 2007).

How the values were obtained:
E. faecalis MurD [1] = molecular target: T1, E. faecalis MurD (Enterococcus faecalis, UniProt O07108, A218V/A300V/N165D/T307K); experiment: stability of E. faecalis Mur D in DMSO; type: biochemical; conditions: DMSO concentration up to 5%, FIG. 4
[2] = test system: Staphylococcus aureus Mur D enzyme; experiment: salt activation of S. aureus MurD; type: biochemical; conditions: FIG. 2
E. faecalis MurD [3] = molecular target: T1, E. faecalis MurD; type: biochemical; conditions: FIG. 1 / FIG. 3
E. coli enzyme (MurD) = E. coli enzyme (MurD) (Escherichia coli, UniProt P14900); conditions: FIG. 3
Sequence of E. coli enzyme (MurD) (P14900 whole entry): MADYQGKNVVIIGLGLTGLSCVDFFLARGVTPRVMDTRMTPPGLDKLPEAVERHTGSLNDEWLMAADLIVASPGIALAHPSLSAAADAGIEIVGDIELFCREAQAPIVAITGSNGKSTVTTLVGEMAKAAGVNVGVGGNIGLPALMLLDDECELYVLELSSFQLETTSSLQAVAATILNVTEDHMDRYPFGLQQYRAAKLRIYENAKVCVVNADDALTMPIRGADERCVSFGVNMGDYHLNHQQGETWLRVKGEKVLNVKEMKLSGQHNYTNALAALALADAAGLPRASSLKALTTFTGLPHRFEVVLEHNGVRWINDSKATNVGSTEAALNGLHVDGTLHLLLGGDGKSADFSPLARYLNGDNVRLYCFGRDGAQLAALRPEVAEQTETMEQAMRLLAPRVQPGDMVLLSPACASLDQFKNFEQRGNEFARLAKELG

T1 sequence (O07108 whole entry N165D/A218V/A300V/T307K): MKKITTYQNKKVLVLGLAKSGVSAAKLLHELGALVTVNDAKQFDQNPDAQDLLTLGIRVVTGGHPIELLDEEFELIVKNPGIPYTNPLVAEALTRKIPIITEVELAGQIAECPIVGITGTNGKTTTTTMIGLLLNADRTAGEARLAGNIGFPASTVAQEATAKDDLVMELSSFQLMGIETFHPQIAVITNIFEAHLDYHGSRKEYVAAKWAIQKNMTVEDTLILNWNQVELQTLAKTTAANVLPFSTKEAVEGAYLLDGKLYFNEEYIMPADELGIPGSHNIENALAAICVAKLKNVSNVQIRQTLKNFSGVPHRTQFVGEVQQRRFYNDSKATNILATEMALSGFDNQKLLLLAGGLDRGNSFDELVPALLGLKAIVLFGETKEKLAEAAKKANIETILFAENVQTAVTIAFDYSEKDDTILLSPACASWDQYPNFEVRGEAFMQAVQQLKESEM

C[S+](C)[O-] [DMSO, dimethylsulfoxide]
effect of DMSO on E. faecalis MurD (E. faecalis MurD [1]): not affected

[K+] [K^+, potassium]
activation of S. aureus Mur D enzyme by cations [2]: activated

N [NH4^+, ammonium]
activation of S. aureus Mur D enzyme by cations [2]: activated

O=S(=O)(O)O [SO4-ions]
effect of salt on E. faecalis MurD enzyme activity (E. faecalis MurD [3]): inhibitor

N.O=CO [ammonium formate]
effect of salt on E. faecalis MurD enzyme activity (E. faecalis MurD [3]): independent | dependence of E. coli enzyme activity on presence of salt (E. coli enzyme (MurD)): dependent
